Assay results taken from US20220033397A1, “PHARMACEUTICAL COMPOUNDS AND THEIR USE AS INHIBITORS OF UBIQUITIN SPECIFIC PROTEASE 19 (USP19)” (ALMAC DISCOVERY LIMITED, priority 2018, published 2022).

These compounds were tested against T1, Full-length USP19 (Homo sapiens, UniProt O94966) (assay: USP19 fluorescence polarisation (FP) homogeneous assay with Ubiquitin-Lys-TAMRA substrate). Conditions: 2.5 nM USP19, 30 min pre-incubation, average of at least two duplicate experiments.
T1 construct: Full-length USP19 was purchased from Boston Biochem (E-576); purchased Boston Biochem E-576
T1 sequence (O94966 1-1318): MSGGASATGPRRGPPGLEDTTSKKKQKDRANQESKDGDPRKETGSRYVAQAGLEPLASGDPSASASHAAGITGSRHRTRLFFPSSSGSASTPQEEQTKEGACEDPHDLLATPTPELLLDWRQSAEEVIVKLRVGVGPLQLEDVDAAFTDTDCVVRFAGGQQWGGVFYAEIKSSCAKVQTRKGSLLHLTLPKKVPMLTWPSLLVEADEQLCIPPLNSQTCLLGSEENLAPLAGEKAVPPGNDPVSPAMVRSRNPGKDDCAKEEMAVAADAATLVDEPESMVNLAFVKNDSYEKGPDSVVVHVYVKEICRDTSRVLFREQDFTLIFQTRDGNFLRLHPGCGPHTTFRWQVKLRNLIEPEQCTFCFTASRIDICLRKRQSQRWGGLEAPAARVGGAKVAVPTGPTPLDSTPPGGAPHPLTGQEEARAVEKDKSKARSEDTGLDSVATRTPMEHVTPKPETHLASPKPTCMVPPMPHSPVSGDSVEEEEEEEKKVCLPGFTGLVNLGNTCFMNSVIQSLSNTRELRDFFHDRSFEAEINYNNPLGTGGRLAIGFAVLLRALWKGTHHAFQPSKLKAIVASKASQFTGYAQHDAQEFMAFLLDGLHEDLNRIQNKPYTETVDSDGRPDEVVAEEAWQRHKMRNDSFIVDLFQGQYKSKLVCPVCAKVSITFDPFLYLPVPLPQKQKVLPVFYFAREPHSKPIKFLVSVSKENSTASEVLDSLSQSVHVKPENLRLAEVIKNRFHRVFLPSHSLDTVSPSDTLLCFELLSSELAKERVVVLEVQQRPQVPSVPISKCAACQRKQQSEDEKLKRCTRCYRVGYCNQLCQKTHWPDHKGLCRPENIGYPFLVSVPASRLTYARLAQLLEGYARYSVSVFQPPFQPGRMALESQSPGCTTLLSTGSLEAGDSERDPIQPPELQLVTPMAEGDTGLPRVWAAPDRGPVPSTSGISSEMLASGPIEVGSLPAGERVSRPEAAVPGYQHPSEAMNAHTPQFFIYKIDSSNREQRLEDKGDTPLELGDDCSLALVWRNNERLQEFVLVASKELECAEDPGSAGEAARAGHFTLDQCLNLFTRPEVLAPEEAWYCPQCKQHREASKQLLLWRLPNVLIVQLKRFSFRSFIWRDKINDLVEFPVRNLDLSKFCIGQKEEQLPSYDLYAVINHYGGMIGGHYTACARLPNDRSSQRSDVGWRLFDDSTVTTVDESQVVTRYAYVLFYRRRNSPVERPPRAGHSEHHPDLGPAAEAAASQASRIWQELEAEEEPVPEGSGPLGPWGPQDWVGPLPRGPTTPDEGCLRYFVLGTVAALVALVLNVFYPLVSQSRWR
Format: biochemical
Procedure, shortened: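 Full-length USP19 preincubated 30 min at RT with inhibitor (200 μM to 2 μM series, 8–18 points) before adding 500 nM Ubiquitin-Lys-TAMRA substrate.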
`N[C@H]1CCN(C(=O)N2CC[C@@](O)(Cn3cnc(-c4ccccc4)cc3=O)C3(CCCC3)C2)[C@H](c2ccccc2)C1` [Example 396, 3-(((S)-7-((2S,4S)-4-Amino-2-phenyl-piperidine-1-car-bonyl)-10-hydroxy-7-azaspiro[4.5]de-can-10-yl)meth-yl)-6-phenyl-pyrimidin-4(3H)-one] was tested, and the IC50 was under 0.5 µM. `CC(C)COC(=O)N1CCC(O)(Cn2cc(C(=O)N(C)C)c(-c3ccccc3)cc2=O)C2(CCCC2)C1` (centres unmarked) [Example 84, Isobutyl 10-((5-(dimethylcarbamoyl)-2-oxo-4-phenylpyridin-1(2H)-yl)methyl)-10-hydroxy-7-azaspiro[4.5]decane-7-carboxylate] was tested, and the IC50 was 5 to 50 µM. For `C[C@H](CC1CCCCC1)C(=O)N1CCC(O)(Cn2cc(-n3cccn3)ncc2=O)C(C)(C)C1` (stereo partly drawn) [Example 18, 1-((1-((R)-3-Cyclohexyl-2-methylpropanoyl)-4-hydroxy-3,3-dimethylpiperidin-4-yl)methyl)-5-(1H-pyrazol-1-yl)pyrazin-2(1H)-one], the IC50 was 0.5 to 5 µM. With `O=C(N1CC[C@@](O)(Cn2cnc(-c3ccccc3)cc2=O)C2(CCCC2)C1)N1CCNC[C@H]1c1ccccc1F` [Example 370, 3-(((10S)-7-(2-(2-Fluorophenyl)pipera-zine-1-carbonyl)-10-hydroxy-7-azaspiro[4.5]decan-10-yl)methyl)-6-phenylpyrimidin-4(3H)-one] the IC50 was under 0.5 µM. In the case of `C[C@H](CC(F)(F)F)C(=O)N1CCC(O)(Cn2ccc3cc(C(F)(F)F)ccc3c2=O)C2(CCCC2)C1` (stereo partly drawn) [Example 126, 2-((10-Hydroxy-7-((R)-4,4,4-trifluoro-2-methylbutanoyl)-7-azaspiro[4.5]decan-10-yl)methyl)-6-(trifluoromethyl)isoquinolin-1(2H)-one], the IC50 is reported as 5 to 50 µM. In the case of `O=C(N1CC[C@@](O)(Cn2cnc(-c3cccc(F)c3)cc2=O)C2(CCCC2)C1)N1CCNC[C@H]1c1cc(F)ccc1F` [Example 376, 3-(((S)-7-((R)-2-(2,5-Difluorophenyl)piper-azine-1-carbonyl)-10-hydroxy-7-azaspiro[4.5]decan-10-yl)methyl)-6-(3-fluorophenyl)pyrimi-din-4(3H)-one], the IC50 is reported as under 0.5 µM. Compound `Cc1cccc(-c2cc(=O)n(C[C@]3(O)CCN(C(=O)N4CCNC[C@H]4c4ccccc4)CC34CCCC4)cn2)c1` [Example 341, 3-(((S)-10-Hydroxy-7-((R)-2-phenylpiperazine-1-carbonyl)-7-azaspiro[4.5]decan-10-yl)methyl)-6-(m-tolyl)pyrimidin-4(3H)-one] has an IC50 of under 0.5 µM. `C[C@H](CC1CCCCC1)C(=O)N1CCC(O)(Cn2ccncc2=O)C2(CCCC2)C1` (stereo partly drawn) [Example 3, 1-((7-((R)-3-Cyclohexyl-2-methylpropanoyl)-10-hydroxy-7-azaspiro[4.5]decan-10-yl)methyl)pyrazin-2(1H)-one] gave an IC50 of 0.5 to 5 µM. Compound `O=C1CN(C(=O)N2CC[C@@](O)(Cn3cnc(-c4ccccc4)cc3=O)C3(CCCC3)C2)[C@H](c2ccccc2)CN1` [Example 372, 3-(((S)-10-Hydroxy-7-((R)-5-oxo-2-phenylpiperazine-1-carbonyl)-7-azaspiro[4.5]decan-10-yl)methyl)-6-phenylpyrimidin-4(3H)-one] has an IC50 of under 0.5 µM. `CS(C)(=O)=Nc1cn(CC2(O)CCN(C(=O)N3CCNC[C@H]3c3ccccc3)CC23CCCC3)c(=O)cc1-c1ccccc1` (stereo partly drawn) [Example 191, 5-((Dimethyl(oxo)-λ^6-sulfaneylidene)amino)-1-((10-hydroxy-7-((R)-2-phenylpiperazine-1-carbonyl)-7-azaspiro[4.5]decan-10-yl)methyl)-4-phenylpyridin-2(1H)-one] showed an IC50 of under 0.5 µM. `O=C(NCc1cccs1)N1CC[C@@](O)(Cn2cnc(-c3ccccc3)cc2=O)C2(CCCC2)C1` [Example 214, (S)-10-Hydroxy-10-((6-oxo-4-phenylpyrimidin-1(6H)-yl)methyl)-N-(thiophen-2-ylmethyl)-7-azaspiro[4.5]decane-7-carboxamide] gave an IC50 of under 0.5 µM. `Cn1nccc1-c1cc(=O)n(CC2(O)CCN(C(=O)NCc3ccccc3)CC23CCCC3)cn1` (centres unmarked) [Example 205, N-Benzyl-10-hydroxy-10-((4-(1-methyl-1H-pyrazol-5-yl)-6-oxopyrimidin-1(6H)-yl)methyl)-7-azaspiro[4.5]decane-7-carboxamide] gave an IC50 of 0.5 to 5 µM. For `C[C@H](CC(F)(F)F)C(=O)N1CCC(O)(Cn2ccc3nc(N4CCN(C)CC4)ncc3c2=O)C2(CCCC2)C1` (stereo partly drawn) [Example 61, 6-((10-Hydroxy-7-((R)-4,4,4-trifluoro-2-methylbutanoyl)-7-azaspiro[4.5]decan-10-yl)methyl)-2-(4-methylpiperazin-1-yl)pyrido[4,3-d]pyrimidin-5(6H)-one], the IC50 was 0.5 to 5 µM. `O=C(NCc1cccnc1)N1CCC(O)(Cn2cnc(-c3ccccc3)cc2=O)C2(CCCC2)C1` (centres unmarked) [Example 199, 10-Hydroxy-10-((6-oxo-4-phenylpyrimidin-1(6H)-yl)methyl)-N-(pyridin-3-ylmethyl)-7-azaspiro[4.5]decane-7-carboxamide] was tested, and the IC50 was 50 to 250 µM. `O=C(N1CCC(O)(Cn2cnc(-c3ccccc3)cc2=O)C2(CCCC2)C1)N1CCOCC1C(F)(F)F` (centres unmarked) [Example 263, 3-((10-Hydroxy-7-(3-(trifluoromethyl)morpholine-4-carbonyl)-7-azaspiro[4.5]decan-10-yl)methyl)-6-phenylpyrimidin-4(3H)-one] was tested, and the IC50 was 5 to 50 µM. In the case of `CC(=O)N1CCN(CC2(O)CCN(C(=O)[C@H](C)CC(F)(F)F)CC23CCCC3)C(=O)C1` (stereo partly drawn) [Example 112, 4-Acetyl-1-((10-hydroxy-7-((R)-4,4,4-trifluoro-2-methylbutanoyl)-7-azaspiro[4.5]decan-10-yl)methyl)piperazin-2-one], the IC50 is reported as 5 to 50 µM. With `O=C(N1CC[C@@](O)(Cn2cnc(C3CC3)cc2=O)C2(CCCC2)C1)N1CCNC[C@H]1c1cc(F)ccc1F` [Example 378, 6-Cyclopropyl-3-(((S)-7-((R)-2-(2,5-difluorophenyl)piper-azine-1-carbonyl)-10-hydroxy-7-aza-spiro[4.5]decan-10-yl)methyl)pyrimidin-4(3H)-one] the IC50 was under 0.5 µM. Compound `C[C@H](CC(F)(F)F)C(=O)N1CCC(O)(Cn2cnc3ccc(Cl)cc3c2=O)C2(CCCC2)C1` (stereo partly drawn) [Example 147, 6-Chloro-3-((10-hydroxy-7-((R)-4,4,4-trifluoro-2-methylbutanoyl)-7-azaspiro[4.5]decan-10-yl)methyl)quinazolin-4(3H)-one] has an IC50 of 0.5 to 5 µM. Compound `CC(C)c1coc([C@@H]2CCCN2C(=O)N2CCC(O)(Cn3cnc(-c4ccccc4)cc3=O)C3(CCCC3)C2)n1` (stereo partly drawn) [Example 270, 3-((10-Hydroxy-7-((S)-2-(4-isopropyloxazol-2-yl)pyrrolidine-1-carbonyl)-7-azaspiro[4.5]decan-10-yl)methyl)-6-phenylpyrimidin-4(3H)-one] has an IC50 of 50 to 250 µM. Work on `C[C@H](CC1CCCCC1)C(=O)N1CCC(O)(CN2CC(Cc3ccccc3)CC2=O)C2(CCCC2)C1` (stereo partly drawn) [Example 41, 4-Benzyl-1-((7-((R)-3-cyclohexyl-2-methylpropanoyl)-10-hydroxy-7-azaspiro[4.5]decan-10-yl)methyl)pyrrolidin-2-one] yielded an IC50 of 0.5 to 5 µM. `O=C1COCCN1CC1(O)CCN(C(=O)N2CCNC[C@H]2c2ccccc2)CC12CCCC2` (stereo partly drawn) [Example 118, 4-((10-Hydroxy-7-((R)-2-phenylpiperazine-1-carbonyl)-7-azaspiro[4.5]decan-10-yl)methyl)morpholin-3-one] gave an IC50 of 0.5 to 5 µM. Compound `O=C(NCc1cccc(F)c1F)N1CC[C@@](O)(Cn2cnc(-c3ccccc3)cc2=O)C2(CCCC2)C1` [Example 301, (S)—N-(2,3-Difluorobenzyl)-10-hydroxy-10-((6-oxo-4-phenylpyrimidin-1(6H)-yl)methyl)-7-azaspiro[4.5]decane-7-carboxamide] has an IC50 of under 0.5 µM. For `CN(Cc1ccns1)C(=O)N1CCC(O)(Cn2cnc(-c3ccccc3)cc2=O)C2(CCCC2)C1` (centres unmarked) [Example 238, 10-Hydroxy-N-(isothiazol-5-ylmethyl)-N-methyl-10-((6-oxo-4-phenylpyrimidin-1(6H)-yl)methyl)-7-azaspiro[4.5]decane-7-carboxamide], the IC50 was 5 to 50 µM.
